Reference: patent publication US10106565B2 (priority 2008, dated 2018)

Legend:
[1] = tested on: osteoclasts differentiated from human monocytes on bone matrix; test: Bone resorption in vitro (Crosslaps assay, CTX release); format: cell-based; conditions: for inhibition at 0.2 µM: 200 nM in differentiating medium; for inhibition at 20 µM: Monocyte, monocytes pre-incubated (6 hours, 20 μM) before differentiation
Experimental: PBMC from adult healthy volunteers are prepared as described in example 1.
Monocytes are then purified as described in section 4.2.
Monocytes were cultured in bone matrix 96-well plates (OsteoAssay Human bone plate, Lonza, USA) and differentiated into osteoclasts in the presence of M-CSF and sRANK-Ligand as described in section 4.2. Supernatants were collected and bone resorption was evaluated using a Crosslaps assay (Nordicbioscience, Danemark) which measures collagen degradation fragments.

CD4 T cells = test: Allogenic mixed leucocyte reaction (MLR) with activated monocytes; format: cell-based, human; conditions: 20 μM, 24 hours activation; PBL:monocyte ratios 4:1 to 100:1; vs alt- and class-monocytes
Experimental: For the functional experiments, freshly purified monocytes are cultured in 6-well plates. The cells are stimulated for 24 hours (immunophenotyping by flow cytometry analyses, MLR) or 96 hours (CD206 detection) with different stimuli or remain untreated (control). Dendrimer-activated monocytes (da-monocytes) are obtained with 20 μM of the dendrimer Gc1, alternatively-activated monocytes (alt-monocytes) with 10 U/mL recombinant human IL4 (Peprotech). The classical activation of monocytes is obtained by priming the cells over night (18 hours) with 100 U/mL of human recombinant IFN-γ (R&D Systems) and, after a washing step in PBS, by stimulation with 10 ng/mL LPS from E. coli 011/B4 strain (InvivoGen) for the remaining 6 hours or […].
MLR are performed in 96-well round bottom plates in a total volume of 200 μL in complete RPMI 1640 medium. […] The proliferation of the CD4 T cells is analyzed by measuring the cytoplasmic dilution of CFSE (as described in 5.1. Methods). […] Then, CFSE dilution is analyzed by flow cytometry to measure the proliferation of alloantigen-induced CD4 T cells. After gating for CD4 positive cells CFSE fluorescence intensities are analyzed, and the percentage of CD4 T cells which have proliferated during the MLR is taken into account. […] The overall differences are evaluated by analysis of variance test (ANOVA) with Sigma Stat software (Systat Software).

SMILES: CN(/N=C/c1ccc(OP2(Oc3ccc(/C=N/N(C)P(=S)(Oc4ccc(CCN(CP(=O)(O)O)CP(=O)(O)O)cc4)Oc4ccc(CCN(CP(=O)(O)O)CP(=O)(O)O)cc4)cc3)=NP(Oc3ccc(/C=N/N(C)P(=S)(Oc4ccc(CCN(CP(=O)(O)O)CP(=O)(O)O)cc4)Oc4ccc(CCN(CP(=O)(O)O)CP(=O)(O)O)cc4)cc3)(Oc3ccc(/C=N/N(C)P(=S)(Oc4ccc(CCN(CP(=O)(O)O)CP(=O)(O)O)cc4)Oc4ccc(CCN(CP(=O)(O)O)CP(=O)(O)O)cc4)cc3)=NP(Oc3ccc(/C=N/N(C)P(=S)(Oc4ccc(CCN(CP(=O)(O)O)CP(=O)(O)O)cc4)Oc4ccc(CCN(CP(=O)(O)O)CP(=O)(O)O)cc4)cc3)(c3ccc(/C=N/N(C)P(=S)(Oc4ccc(CCN(CP(=O)(O)O)CP(=O)(O)O)cc4)Oc4ccc(CCN(CP(=O)(O)O)CP(=O)(O)O)cc4)cc3)=N2)cc1)P(=S)(Oc1ccc(CCN(CP(=O)(O)O)CP(=O)(O)O)cc1)Oc1ccc(CCN(CP(=O)(O)O)CP(=O)(O)O)cc1 (centres unmarked) [Gc1]
- inhibition at 0.2 µM ([1]; 288 h, day 12): ~60%
- inhibition at 0.2 µM ([1]; 360 h, day 15): ~80%
- inhibition at 20 µM ([1]; day 12): ~80%
- inhibition at 20 µM ([1]; day 15): ~50%
- MLR activation (divided CD4+ T lymphocytes) by da-monocytes (CD4 T cells): lowest activating effect on MLR
